# Results published in publication PMC2231820 (The Journal of General Physiology, 2000).
# Residue numbers refer to the chain shown, from its start. Like-named read-outs stand apart in the source and are kept apart here.
# What was measured:
# Assay type in all cases: cell-based
# [1] = molecular target: T1, rat olfactory (Rolf) CNG channel, α homomultimer (Rattus norvegicus, UniProt Q00195); conditions: for Hill coefficient n of cGMP activation: six patches
# T1 sequence (Q00195 1-664): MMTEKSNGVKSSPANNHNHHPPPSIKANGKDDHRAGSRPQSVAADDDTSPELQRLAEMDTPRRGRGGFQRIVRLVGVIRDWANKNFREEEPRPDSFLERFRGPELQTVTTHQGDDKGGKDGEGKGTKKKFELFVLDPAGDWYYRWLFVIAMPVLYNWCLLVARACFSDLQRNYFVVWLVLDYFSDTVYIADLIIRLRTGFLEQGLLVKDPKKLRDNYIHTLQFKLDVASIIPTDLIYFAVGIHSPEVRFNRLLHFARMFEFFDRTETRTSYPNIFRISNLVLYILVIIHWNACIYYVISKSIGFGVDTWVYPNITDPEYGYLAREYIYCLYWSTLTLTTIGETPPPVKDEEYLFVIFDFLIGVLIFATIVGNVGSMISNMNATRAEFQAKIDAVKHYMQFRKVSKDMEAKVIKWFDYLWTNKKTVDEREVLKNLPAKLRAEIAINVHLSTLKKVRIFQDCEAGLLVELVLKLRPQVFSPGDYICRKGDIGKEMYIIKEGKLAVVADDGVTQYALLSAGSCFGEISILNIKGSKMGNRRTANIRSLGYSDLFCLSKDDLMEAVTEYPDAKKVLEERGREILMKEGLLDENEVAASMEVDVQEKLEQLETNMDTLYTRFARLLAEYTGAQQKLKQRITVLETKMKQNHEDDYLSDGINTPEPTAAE
# [2] = molecular target: T2, mouse olfactory (Molf) CNG channel, α homomultimer (Mus musculus, UniProt Q62398, M2V)
# T2 sequence (Q62398 1-664 M2V): T1 sequence (Q00195 1-664) with M2V, P50S, Q69R, V77I, D115G, G118D, V297A, D611E, T661A, A662V
# Molf G204E CNG channel = molecular target: T3, Molf G204E CNG channel (Mus musculus, UniProt Q62398, G204E/M2V)
# T3 sequence (Q62398 1-664 M2V/G204E): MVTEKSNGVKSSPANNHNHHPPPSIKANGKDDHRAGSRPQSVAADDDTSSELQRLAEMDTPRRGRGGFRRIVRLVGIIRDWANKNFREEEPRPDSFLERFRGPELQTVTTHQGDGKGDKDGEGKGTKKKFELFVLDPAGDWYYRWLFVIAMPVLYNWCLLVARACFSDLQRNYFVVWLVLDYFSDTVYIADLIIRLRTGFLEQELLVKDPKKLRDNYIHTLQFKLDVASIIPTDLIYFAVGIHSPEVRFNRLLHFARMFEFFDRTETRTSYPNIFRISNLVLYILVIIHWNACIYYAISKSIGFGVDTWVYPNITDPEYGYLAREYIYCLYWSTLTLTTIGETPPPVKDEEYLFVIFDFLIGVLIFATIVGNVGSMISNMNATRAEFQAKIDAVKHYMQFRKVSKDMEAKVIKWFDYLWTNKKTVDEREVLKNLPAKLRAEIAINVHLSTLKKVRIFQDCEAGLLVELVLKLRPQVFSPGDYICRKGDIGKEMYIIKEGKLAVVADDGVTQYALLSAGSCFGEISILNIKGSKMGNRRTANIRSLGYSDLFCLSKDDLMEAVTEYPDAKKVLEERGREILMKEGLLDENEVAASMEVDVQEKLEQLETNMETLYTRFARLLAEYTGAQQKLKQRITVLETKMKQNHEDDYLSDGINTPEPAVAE
# Rolf G204E CNG channel = molecular target: T4, Rolf G204E CNG channel (Rattus norvegicus, UniProt Q00195, G204E); conditions: for Hill coefficient n of cGMP activation: 2 patches
# T4 sequence (Q00195 1-664 G204E): T1 sequence (Q00195 1-664) with G204E
# [3] = read-out: Percent inhibition by tetracaine
compound,measurement,setting,value
"CCCCNc1ccc(C(=O)OCCN(C)C)cc1 [Tetracaine, tetracaine]",IC50,[1],140 µM
same,inhibition at 40 µM,[1]; [3],10.4%
same,inhibition at 40 µM,[2]; [3],18.8%
same,IC50,Molf G204E CNG channel,10.8 µM
same,inhibition at 40 µM,Molf G204E CNG channel; [3],78.3%
same,inhibition at 40 µM,Rolf G204E CNG channel; [3],76.4%
Nc1nc2c(ncn2[C@@H]2O[C@@H]3COP(=O)(O)O[C@H]3[C@H]2O)c(=O)[nH]1 [cGMP],Hill coefficient n of cGMP activation,"[1]; Rolf, +100 mV",2.8
same,Hill coefficient n of cGMP activation,"[1]; Rolf, −100 mV",2.8
same,I/Imax of cGMP-activated current,"[2]; Molf, 1 μM cGMP, +100 mV",0.15
same,I/Imax of cGMP-activated current,"Molf G204E CNG channel; Molf G204E, 1 μM cGMP, +100 mV",0.15
same,Hill coefficient n of cGMP activation,"Rolf G204E CNG channel; Rolf G204E, +100 mV",1.7
same,Hill coefficient n of cGMP activation,"Rolf G204E CNG channel; Rolf G204E, −100 mV",1.7
diacylglycerol [DAG],decrease of maximal current by DAG,"[1]; Rolf, 1.5 μM DAG, saturating 100 μM cGMP",14%
same,inhibition of cGMP-activated current by DAG (in words),"[1]; Rolf, 12 μM DAG, saturating cGMP",only partial inhibition
same,inhibition of cGMP-activated current by DAG (in words),"[2]; Molf, 12 μM DAG, saturating cGMP",only partial inhibition
same,DAG maximal percent inhibition (INmax),"[2]; Molf, saturating 100 μM cGMP",17%
same,Hill coefficient n of DAG inhibition,"[2]; Molf, saturating 100 μM cGMP",0.8
same,decrease of maximal current by DAG,"Molf G204E CNG channel; Molf G204E, 1.5 μM DAG, saturating 100 μM cGMP",> 80%
same,DAG maximal percent inhibition (INmax),"Molf G204E CNG channel; Molf G204E, saturating 100 μM cGMP",100%
same,DAG concentration that fully suppresses cGMP-activated currents,"Molf G204E CNG channel; Molf G204E, saturating cGMP",~3 µM
same,DAG maximal percent inhibition (INmax),"Rolf G204E CNG channel; Rolf G204E, saturating 100 μM cGMP",100%
same,DAG concentration that fully suppresses cGMP-activated currents,"Rolf G204E CNG channel; Rolf G204E, saturating cGMP",~3 µM
